Test results reported in patent US20250303004A1, “RADIOPHARMACEUTICAL COMPOSITIONS FOR LOW TOXICITY ACTINIUM IN TARGETED RADIONUCLIDE THERAPY” (Curium US LLC, priority 2021, published 2025).
“Also recorded” adds a separate entry of the source. Where two headings read alike, the source gives them in different places.

What was measured:
[1] = system: salivary glands, kidneys, red marrow; assay: Dosimetry estimate for ^225Ac-PSMA-617 extrapolated from ^177Lu-PSMA-617 scans; format: in vivo, human; settings: FIG. 15
Experimental: The clinical dosimetry basis and dose finding study was performed by using the isotopes ^225Ac and ^177Lu by Kratochwil et al. A dosimetry estimate was calculated on the basis of time-activity curves derived from serially obtained ^177Lu-PSMA-617 scans extrapolated to the physical half-life of ^225Ac, assuming instant decay of unstable daughter nuclides. Salvage therapies empirically conducted with 50 (n=4), 100 (n=4), 150 (n=2), and 200 kBq/kg (n=4) of 225Ac-PSMA-617 were evaluated retrospectively regarding toxicity and treatment response. Eight of 14 patients received further cycles in either 2- or 4-mo intervals with identical or de-escalated activities.
In FIG. 15, the absorbed radiation dose estimates for ^225Ac-PSMA-617 are shown together with I-131-“PSMA” and ^177Lu-PSMA-617 doses. We see that mean dose for salivary glands is approximately 70% higher with ^225Ac-PSMA-617 than with ^177Lu-PSMA-617, and red marrow dose 85% higher, respectively.

patients with mCRPC [2] = settings: cited from earlier work
mCRPC patients = settings: cited from earlier work
patients with mCRPC [3] = settings: cited from earlier work; for Biochemical response PSA50 (PSA decline of more than 50%): 40 patients (38 evaluated)
patient [4] = settings: Sathekge 2019a; 1 patient; 8 MBq per cycle; cited from earlier work
[5] = system: chemotherapy naive patients; settings: cited from earlier work
patient [6] = settings: De Medeiros 2019; 1 patient; 6-8 MBq per cycle; cited from earlier work
men with mCRPC = settings: 73 patients, cited from earlier work
[7] = Kratochwil 2016, 2 patients, 100 kBq/kg per cycle
[8] = both patients, 100 kBq/kg every 8 weeks
[9] = Kratochwil 2017, 14 patients, 50-200 kBq/kg per cycle
[10] = Kratochwil 2018, 40 patients, 100 kBq/kg per cycle
[11] = Sathekge 2019b, 17 patients, 4-8 MBq per cycle

O=C(O)CC[C@H](NC(=O)N[C@@H](CCCCNC(=O)[C@H](Cc1ccc2ccccc2c1)NC(=O)[C@H]1CC[C@H](CNC(=O)CN2CCN(CC(=O)O)CCN(CC(=O)O)CCN(CC(=O)O)CC2)CC1)C(=O)O)C(=O)O [^225Ac-PSMA-617, metal not drawn]
mean dose for salivary glands higher than with ^177Lu-PSMA-617 [1]: approximately 70% | red marrow dose higher than with ^177Lu-PSMA-617 [1]: 85% | Salivary gland toxicity (xerostomia) (patients with mCRPC [2]; 2 patients): reported in both patients | Biochemical response PSA50 (patients with mCRPC [2]; [7]): 100% | Major toxicity (patients with mCRPC [2]; [7]): xerostomia | PSA (patients with mCRPC [2]; [8]): declined below the measurable level | response on ^68Ga-PSMA-11 PET/CT scan (patients with mCRPC [2]; [8]): complete response | Biochemical response PSA50 (mCRPC patients; [9]): 44% | Major toxicity (mCRPC patients; [9]): xerostomia | OS (mCRPC patients; [9]): na/8.5 mo | duration of prostate-specific antigen decline (mCRPC patients; at 100 kBq/kg): less than 4 months | dose-limiting toxicity (mCRPC patients; if treatment activity exceeded 100 kBq/kg per cycle): severe xerostomia | patients with remarkable antitumor activity (objective radiologic response or tumor marker decline) (mCRPC patients; of 11 evaluable patients): 9 patients | toxicity (mCRPC patients; treatment activities of 50 kBq/kg): without toxicity | antitumor response (mCRPC patients; treatment activities of 50 kBq/kg, high-tumor-burden patients): insufficient antitumor response | median duration of tumor control (patients with mCRPC [3]; 40 patients, 100 kBq/kg): 9 months | median overall survival (patients with mCRPC [3]; 40 patients, 100 kBq/kg): more than 12 months | progression free survival (median) (patients with mCRPC [3]; 40 patients, 100 kBq/kg): 7.0 months | Biochemical response PSA50 (PSA decline of more than 50%) (patients with mCRPC [3]; Kratochwil 2018, 100 kBq/kg per cycle): 63% | Biochemical response PSA50 (PSA decline of more than 50%) (patients with mCRPC [3]; Kratochwil 2018, 100 kBq/kg per cycle, listed as PSMA-617): 63% | Major toxicity (patients with mCRPC [3]; [10]): xerostomia | OS (patients with mCRPC [3]; [10]): na/>12 mo | patients demonstrating any PSA response (patients with mCRPC [3]; of 38 patients surviving at least 8 weeks): 87% | Biochemical response PSA50 (patient [4]): 100% | most frequently noted side-effect ([5]; 17 patients, no discontinuation due to severe symptoms): Grade 1-2 xerostomia | Biochemical response PSA50 [5, 11]: 88% | Major toxicity [5, 11]: xerostomia | nephrotoxicity ([5]; a patient with only a single functional kidney, poor renal functioning from baseline): Grade 4 nephrotoxicity | patients with PSA decline >90% ([5]; at end of therapy, 17 patients): 82% | patients still alive ([5]; median follow up of 13 months post initiation of treatment): 82% | surviving patients in remission with undetectable serum PSA levels ([5]; median follow up of 13 months): 50% | surviving patients with stable disease ([5]; median follow up of 13 months): 50% | Biochemical response PSA50 (patient [6]): 100% | Major toxicity (patient [6]): xerostomia; also recorded: xerophtalmia | Median PFS (men with mCRPC; 95% CI, 13.1-17.4 months): 15.2 months | Median OS (men with mCRPC; 95% CI, 16.2-19.9 months): 18 months | Anemia, Grade I or II (men with mCRPC): 22 patients | Anemia, Grade IV (men with mCRPC): 0 patients | Anorexia, Grade I or II (men with mCRPC): 23 patients | Anorexia, Grade III (men with mCRPC): 0 patients | Anorexia, Grade IV (men with mCRPC): 0 patients | Constipation, Grade I or II (men with mCRPC): 19 patients | Constipation, Grade III (men with mCRPC): 0 patients | Constipation, Grade IV (men with mCRPC): 0 patients | Dry eyes, Grade I or II (men with mCRPC): 4 patients | Dry eyes, Grade III (men with mCRPC): 0 patients | Dry eyes, Grade IV (men with mCRPC): 0 patients | Dry mouth, Grade I or II (men with mCRPC): 62 patients | Dry mouth, Grade III (men with mCRPC): 0 patients | Dry mouth, Grade IV (men with mCRPC): 0 patients | Dysgeusia, Grade I or II (men with mCRPC): 4 patients | Dysgeusia, Grade III (men with mCRPC): 0 patients | Dysgeusia, Grade IV (men with mCRPC): 0 patients | Dyspepsia, Grade I or II (men with mCRPC): 3 patients | Dyspepsia, Grade III (men with mCRPC): 0 patients | Dyspepsia, Grade IV (men with mCRPC): 0 patients
